Results from US20250228856A1, “USE OF HEMATOPOIETIC CELL KINASE (HCK) INHIBITOR IN PREPARATION OF DRUG FOR TREATING PULMONARY FIBROSIS” (Institute of Basic Medical Sciences, CAMS, priority 2024, published 2025).

Key:
Format in all cases: in vivo, C57BL/6J mice
[1] = tested on: Hck; experiment: Hck transcription level in lung tissue of IPF mice (qPCR); conditions: BLM (2 U/kg) IPF mice; RK-20449 30 mg/kg i.p. once a day, 6 d a week, 3 weeks; FIG. 1
Protocol: (§1) Male C57BL/6J mice (aged 8 weeks and weighing 25-30 g) were selected and housed in an SPF grade laboratory animal room, and the model of IPF was constructed by one-time intratracheal instillation of bleomycin (BLM); the mice were divided into four groups (n=9): • 1) PBS group+vehicle group: PBS (the volume consistent with the subsequent BLM infusion volume) was given by tracheal instillation; RK-20449 solvent PBS was injected intraperitoneally; • 2) PBS+RK-20449 group: intratracheal instillation of PBS (volume consistent with subsequent BLM infusion volume); intraperitoneal injection of RK-20449 (30 mg/kg, once a day, 6 d a week, for 3 weeks); • 3) BLM+vehicle group: BLM solution (2 U/kg) was given tracheal infusion; RK-20449 solvent PBS was injected intraperitoneally; and • 4) BLM+RK-20449 group: BLM solution (2 U/kg) was given tracheal infusion, and RK-20449 (30 mg/kg, once a day, 6 d a week, for 3 weeks) was injected intraperitoneally.
(§2) All mice were sacrificed after 21 d of administration, and the corresponding samples were collected for detection.
(§3) Lung tissue RNA of all mice was extracted; cDNA was obtained by using a reverse transcription kit (KR103, Tiangen Biotechnology, Beijing, China); qPCR was conducted by using a SYBR Green I Q-PCR Kit (TransGen Biotech, Beijing China); data collection and analysis were conducted by Bio-Rad IQ5 system.

[2] = tested on: IPF mice; experiment: ELISA of inflammatory factors in BALF of IPF mice; conditions: BLM IPF mice, 30 mg/kg i.p., 3 weeks
Protocol: as §1, §2
Concentrations of inflammatory factors IL-1β and IL-6 in mouse BALF were detected by using ELISA kits.

[3] = tested on: IPF mice; experiment: Pulmonary function test in IPF mice; conditions: BLM IPF mice, 30 mg/kg i.p., 3 weeks
Protocol: as §1, §2
Anesthetized mice were fixed on an experimental table, and mouse lung function was detected by a pulmonary function testing system (DSI Buxco, USA). Before experiment, the mouse was anesthetized by intraperitoneal injection of 0.4 mL/100 g 2% pentobarbital, tracheotomy was performed, a trachea cannula was inserted, and a ventilator was connected. Next, FRC, PV, FV, and RC were automatically tested by a PET system. Indicators closely related to lung function changes in pulmonary fibrosis for statistical analysis, including lung volume indicators such as IC, and pulmonary ventilation function tests such as RI, Cdyn, and Cchord.

[4] = tested on: IPF mice; experiment: HYP content and degree of lesions in lung tissue of IPF mice; conditions: BLM IPF mice, 30 mg/kg i.p., 3 weeks
Protocol: as §1, §2
30 mg of mouse lung tissue was detected using an HYP kit (NBP2-59747, Novus Biologicals, Littleton, CO, USA).

[5] = tested on: IPF mice; experiment: Body weight and survival rate of IPF mice; conditions: BLM IPF mice, 30 mg/kg i.p., 3 weeks
Protocol: as §1, §2
The mice in each group were weighed, and the death of the mice was observed and counted.

[6] = tested on: IPF mice; experiment: Transcription levels of inflammatory factors in lung tissue of IPF mice (qPCR); conditions: BLM IPF mice, 30 mg/kg i.p., 3 weeks
Protocol: as §1, §2, §3

[7] = tested on: IPF mice; experiment: Transcription levels of fibrosis factors in lung tissue of IPF mice (qPCR); conditions: BLM IPF mice, 30 mg/kg i.p., 3 weeks
Protocol: as §1, §2, §3

SMILES: CN1CCN(C2CCC(n3cc(-c4ccc(Oc5ccccc5)cc4)c4c(N)ncnc43)CC2)CC1 (stereo not shown) [RK-20449]
- transcription level of Hck in the lung tissue [1]: effectively inhibit
- concentration of IL-1β in the alveolar lavage fluid ([2]; FIG. 3D): decreased
- concentration of IL-6 in the alveolar lavage fluid ([2]; FIG. 3E): decreased
- lung function: inspiratory resistance (RI) ([3]; FIG. 2C): improved significantly
- lung function: dynamic compliance (Cdyn) ([3]; FIG. 2D): improved significantly
- lung function: quasi-static compliance (Cchord) ([3]; FIG. 2E): improved significantly
- lung function: inspiratory capacity (IC) ([3]; FIG. 2F): improved significantly
- degree of lesions [4]: alleviated
- hydroxyproline content in lung tissue ([4]; lung tissue, FIG. 4C): decreased
- weight loss of IPF mice ([5]; FIG. 2A): alleviated
- survival rate ([5]; FIG. 2B): increased to a certain extent
- transcription level of Il-1β ([6]; FIG. 3A): decreased
- transcription level of Il-6 ([6]; FIG. 3B): decreased
- transcription level of Tnf-α ([6]; FIG. 3C): decreased
- transcription level of Col-I ([7]; FIG. 4A): decreased
- transcription level of Fn-1 ([7]; FIG. 4B): decreased
